± gives the expanded uncertainty stated by the source.
What was measured:
[1] = 101.33 kPa, Liquid; for viscosity: Capillary tube (Ostwald / Ubbelohde) method
[2] = refractive index (Na D-line) (dimensionless); conditions: 101.33 kPa, Liquid, Standard Abbe refractometry
[3] = molar heat capacity at constant pressure; conditions: 101.33 kPa, Liquid, Small sample (50 mg) DSC

| SMILES | mass density ([1]; 288.15 K) | viscosity ([1]; 288.15 K) | mass density ([1]; 298.15 K) | viscosity ([1]; 298.15 K) | mass density ([1]; 308.15 K) | viscosity ([1]; 308.15 K) | refractive index ([2]; 288.15 K) | refractive index ([2]; 298.15 K) | refractive index ([2]; 308.15 K) | molar heat capacity at constant pressure ([3]; 288.15 K) | molar heat capacity at constant pressure ([3]; 298.15 K) | molar heat capacity at constant pressure ([3]; 308.15 K) | molar heat capacity at constant pressure ([3]; 293.15 K) | molar heat capacity at constant pressure ([3]; 303.15 K) | molar heat capacity at constant pressure ([3]; 313.15 K) | molar heat capacity at constant pressure ([3]; 318.15 K) | molar heat capacity at constant pressure ([3]; 323.15 K) | molar heat capacity at constant pressure ([3]; 328.15 K) | molar heat capacity at constant pressure ([3]; 333.15 K) |
| --- | --- | --- | --- | --- | --- | --- | --- | --- | --- | --- | --- | --- | --- | --- | --- | --- | --- | --- | --- |
| C[S+](C)[O-] [dimethyl sulfoxide] | 1105.39 ± 0.47 kg/m3 | 2.473 ± 0.029 mPa·s | 1095.36 ± 0.45 kg/m3 | 1.989 ± 0.023 mPa·s | 1085.31 ± 0.43 kg/m3 | 1.644 ± 0.019 mPa·s | 1.4835 ± 0.0007 | 1.4778 ± 0.0006 | 1.473 ± 0.0006 | 146.8 ± 2.3 J/K/mol | 152.4 ± 2.4 J/K/mol | 154.6 ± 2.4 J/K/mol | – | – | – | – | – | – | – |
| CCCO [propan-1-ol] | 807.51 ± 0.28 kg/m3 | 2.498 ± 0.028 mPa·s | 799.54 ± 0.29 kg/m3 | 1.952 ± 0.022 mPa·s | 791.41 ± 0.3 kg/m3 | 1.564 ± 0.018 mPa·s | 1.3893 ± 0.0007 | 1.3837 ± 0.0006 | 1.3795 ± 0.0005 | 139 ± 2 J/K/mol | 144.9 ± 2.2 J/K/mol | 151 ± 2.3 J/K/mol | 142.3 ± 2.2 J/K/mol | 148.2 ± 2.3 J/K/mol | 153.7 ± 2.4 J/K/mol | 157.1 ± 2.4 J/K/mol | 160.1 ± 2.5 J/K/mol | 164.5 ± 2.6 J/K/mol | 167.8 ± 2.6 J/K/mol |
